Assays:
Assay type in all cases: cell-based
[1] = test system: Human Rhinovirus 14 (HRV14); experiment: H1-HeLa HRV-CTG EC50, HRV14; conditions: Rhinovirus B, 96 h; H1-HeLa cells, HRV14, MOI 1.0, 4 days, Celltiter-Glo; read-out: EC50 H1-HeLa_HRV14_HRV-CTG 384-well Assay (per Ex Z)
From the text: (§1) Example Z: H1-HeLa HRV-CTG EC50
(§2) H1-Hela cell line (ATCC, Manassas, VA, Cat #CRL-1958) was maintained in Dulbecco's […] Essential Medium (DMEM) (Corning, New York, NY, Cat #15-018 CM) supplemented with 10% fetal bovine serum (FBS) (Hyclone, Logan, UT, Cat #SH30071-03), and 1× Penicillin-Streptomycin-L-Glutamine (Corning, New York, NY, Cat #30-009-CI). Cells were passaged 2 times per week to maintain sub-confluent densities and were used for experiments at passage 5-30. The Human Rhinovirus 1B (HRVIB) (ATCC, Manassas, VA, Cat #VR-1645), Human Rhinovirus 14 (HRV14) (ATCC, Manassas, VA, Cat #VR-284), and Human Rhinovirus 16 (HRV16) (ATCC, Manassas, VA, Cat #BR-283) was obtained through ATCC. Viral infection was monitored by determining viability of H1-HeLa cells as described below.
(§3) Test molecules are prepared in 100% DMSO in 384-well polypropylene plates (Greiner, Monroe, NC, Cat #784201) with 8 compounds per plate in grouped replicates of 4 at 10 serially diluted concentrations (1:3). […]
(§4) The test compounds were spotted to 384-well assay plates (Greiner, Monroe, NC, Cat #781091) at 200 nL per well using an Echo acoustic dispenser (Labcyte, Sunnyvale, CA). […] 40 μL per well of Celltiter-Glo reagent was added and the plates were incubated at room temperature for 15 minutes before reading the luminescence signal on an En Vision multimode plate reader (Perkin Elmer, Waltham, MA). […]

[2] = test system: Human Rhinovirus 16 (HRV16); experiment: H1-HeLa HRV-CTG EC50, HRV16; conditions: Rhinovirus A, 96 h; H1-HeLa cells, HRV16, MOI 0.25, 4 days, Celltiter-Glo; read-out: EC50 H1-HeLa_HRV16_HRV-CTG 384-well Assay (per Ex. Z)
From the text: as §1, §2, §3, §4

RSV strain A2 = experiment: RSV Cellomics assay for RSV A2 antiviral activity (EC50-RSV-Hep2-96-Cellomics); conditions: human respiratory syncytial virus, HEp-2, 72 h; Hep2 cells, RSV strain A2, MOI=0.05, 3 days, RSV F protein immunofluorescence; read-out: EC50-RSV-HEp2-96-Cellomics Example B1
Experimental: Example B1: RSV Cellomics Assay for RSV A2 Antiviral Activity (EC50-RSV-Hep2-96-Cellomics)
8×10^3 Hep2 cells are seeded into 96 well plates in 100 μL of media (DMEM supplemented with GlutaMAX, 10% FBS and Pen/Strep) and briefly spun at 50×g for 1 minute to attach cells. Cells were further allowed to attach with overnight incubation at 37° C.+5% CO2. The following day, the media was aspirated and 100 μL of fresh DMEM media containing 2% FBS was added. A three-fold dilution series of compounds of interest are then added to the plate using the Tecan D300e dispenser and the plate is normalized to the well with the highest volume of DMSO. The cells are next infected by adding 100 μL of media containing RSV strain A2 at an MOI=0.05 and the plates incubated for 3 days at 37° C.+5% CO2. Following the incubation, the media is removed, and the cells are washed once with 250 μL PBS and fixed with 250 μL ice-cold 100% methanol for 10 minutes at 4 C. The methanol is then removed and the plates air dried for 5 minutes and then washed once with 250 μL PBS to remove any residual methanol. The wells are then blocked 60 μL/well of BlockAid (B10710, Thermo-Fisher) for 1 hour at RT on rocker at which point the blocking buffer is carefully aspirated. Primary antibody against the RSV F protein (MAB 858-1) is then diluted 1:2000 in SuperBlock (37515, Thermo Fisher) and 50 μL of the primary antibody solution is added to each well. The plates are incubated at room temperature for 1 hour with gentle agitation and then washed with 250 μL of PBS-Tween 3 times. A goat anti-mouse AlexaFluor 647 conjugated secondary antibody (Sigma, A21235) is then diluted 1:2000 and Hoescht 33342 (H3570) at 1:1000 in SuperBlock and 50 μL added to the wells for 1 hour at 37° C. After incubation the antibody solution is aspirated, and the wells are then washed with 250 μL of PBS-Tween 3 times. To keep cells from drying out, 100 μL of PBS is added to each well and the plates are sealed with black plate seal. Fluorescence at the 647 nm wavelength is measured using a Cellomics CellInsight CX7 machine. Compound activity is determined as a percentage of the % positive cells (or average intensity) compared to DMSO treated RSV infected well controls following subtraction of uninfected controls. The EC50 values are then calculated using nonlinear regression analysis in GraphPad Prism.

Row | SMILES | EC50 [1] [nM] | EC50 [2] [nM] | EC50 (RSV strain A2) [nM]
1 | N#Cc1cc(F)cc(CO[C@H](COCCCCCCCCCCCCCCCCCC(F)(F)F)COP(=O)(O)OC[C@@]2(C#N)O[C@@H](c3ccc4c(N)ncnn34)[C@H](O)[C@@H]2O)c1 [Compound 1, ((2R,3S,4R,5S)-5-(4-aminopyrrolo[2,1-f][1,2,4]triazin-7-yl)-2-cyano-3,4-dihydroxytetrahydrofuran-2-yl)methyl ((R)-2-((3-cyano-5-fluorobenzyl)oxy)-3-((18,18,18-trifluorooctadecyl)oxy)propyl) hydrogen phosphate] | 34 | 34 | 76
2 | N#Cc1cc(F)cc(CO[C@H](CCCCCCCCCCCCCCCCCCC(F)(F)F)COP(=O)(O)OC[C@@]2(C#N)O[C@@H](c3ccc4c(N)ncnn34)[C@H](O)[C@@H]2O)c1 [Compound 2, ((2R,3S,4R,5S)-5-(4-aminopyrrolo[2,1-f][1,2,4]triazin-7-yl)-2-cyano-3,4-dihydroxytetrahydrofuran-2-yl)methyl ((R)-2-((3-cyano-5-fluorobenzyl)oxy)-21,21,21-trifluorohenicosyl) hydrogen phosphate] | 87 | 91 | 241

Source: patent US20240309028A1, “PHOSPHOLIPID COMPOUNDS AND METHODS OF MAKING AND USING THE SAME” (Gilead Sciences, Inc., priority 2023, published 2024)
